Structures can show the parent of a compound that is named as a salt. Where two headings read alike, the source gives them in different places.
Columns and labels:
Assay type in all cases: in vivo, rat
male Sprague Dawley rats = assay: Paw incision model in rats (post-operative pain), electronic von Frey; settings: intraperitoneal, at maximum effect; effective dose at 25% of the maximum effect; tactile hyperalgesia
Excerpt: The paw incision model (Brennan, T. J., Vandermeulen, E. P., Gebhart, G. F., Pain 64, (1996), 493-501) is an animal model of post-operative pain.
In male Sprague Dawley rats (body weight 180-200 g) a longitudinal incision of 1 cm length is made, starting 0.5 cm from the proximal end of the paw, through the skin and fascia. Using bent tweezers the muscle is lifted up from the bottom and incised lengthwise, flat and centered using a scalpel. The muscle is spreaded bluntly with the tweezers. Subsequently, the wound is closed with two sutures.
The tactile hyperalgesia two hours after the operation is determined using an electronic von Frey filament (Somedic Sales AB, Hörby, Sweden). […] In order to investigate the sensitivity to the mechanical stimulus, the paw retraction threshold is determined on the ipsilateral paw as well as in the same position on the untreated contralateral paw and is given in grams of the applied pressure. The retraction threshold per paw is measured four times and the median value is then determined. The retraction threshold of the ipsi- and contralateral paw is measured prior administration (pre-test value) and at several times after administration of a substance, namely (15, 30 and 60 minutes after administration). […]
From the median values the Maximum Positive Effect (% MPE) is determined according to the following formula: […]

rats [1] = assay: Randall-Selitto test in rats (carrageenan inflammatory pain); settings: for ED50: Rattus norvegicus, 0.25 h
Protocol: The weight ratios of the components (a) and (b) that will lead to a supra-additive effect (synergistic effect) of the inventive pharmaceutical composition may be determined via the test of Randall and Selitto as described in Arch. Int. Pharmacodyn., 1957, 111: 409 to 419, which is a model for inflammatory pain. The respective part of the literature is hereby incorporated by reference and forms part of the present disclosure.
Acute inflammation was induced by an intraplantar injection of 0.1 ml of a carrageenan solution (0.5% in distilled water) into one hind paw. The mechanical nociceptive threshold was measured 4 hours after carrageenan injection using an Algesiometer (Ugo Basile, Italy). The device generates a mechanical force with a linear increase over time. The force is applied to the dorsal surface of the inflamed rat hind paw via a cone-shaped stylus with a rounded tip (2 mm tip diameter). The nociceptive threshold is defined as the force (in grams) at which the rat vocalises (cut-off force 250 g). The mechanical nociceptive threshold is measured at different timepoints after the drug or vehicle administration. The antinociceptive and antihyperalgesic activity of the tested substance is expressed as percentages of the maximal possible effect (% MPE). The group size is n=10.
The interactions studies presented herein were performed using equieffective doses of the two components, calculated from the ratio of the respective ED50 values of the components if administered alone.
The application route was intravenous (i.v.) for Axomadol hydrochloride (A) and intraperitoneal (i.p.) for the anticonvulsants Lamotrigine, Lacosamide, Levetiracetam, Retigabine and Carbamazepine. […] According to their respective timepoint of peak effect, A was applied 15 min and the anticonvulsant component also 15 min before timepoint of measurement of the interaction-experiments (i.e. both components were applied simultaneously). Thus, the time point of ED50 calculation of the combination corresponds to the timepoint of the peak effect of the respective compound.

rats [2] = assay: Spinal nerve ligation (Chung model for mononeuropathic pain) in rats, anti-allodynic testing; settings: 30 min after A; A 4 mg/kg iv; B 10 mg/kg iv 20 min before A or vehicle; tactile allodynia
Protocol: Under pentobarbital anaesthesia (Narcoren®, 60 mg/kg i.p., Merial GmbH, Hallbergmoos, FRG), the L5, L6 spinal nerves were tightly ligated (Kim and Chung, Pain 1992; 50: 355). The left L5 and L6 spinal nerves were exposed by removing a small piece of the paravertebral muscle and a part of the left spinous process of the L5 lumbar vertebra. The L5 and L6 spinal nerves were then carefully isolated and tightly ligated with silk (NC-silk black, USP 5/0, metric 1, Braun Melsungen AG, Melsungen, FRG). After checking hemostasis, the muscle and the adjacent fascia were closed with sutures and the skin was closed with sutures.
After operation, animals were allowed to recover for one week. Animals develop tactile allodynia which is stable for at least five weeks. […] Threshold for tactile allodynia was measured with an electronic von Frey anesthesiometer (Somedic, Sweden). […] The median of the withdrawal threshold for each animal at a given time is calculated from five individual stimulations with the electronic von Frey filament. Withdrawal thresholds of the injured paws are expressed as % maximal possible effect (% MPE) comparing predrug threshold of Chung-animals (=0% MPE) and control threshold of sham-animals (=100% MPE). […] The effect of each compound and vehicle is calculated for each testing time point (e.g. 0.5, 1, 3 h post administration) as interindividual % MPE value (±SEM). […]

[3] = ip, i.p., 15 min p. appl. (peak effect), read-out: ED50 [mg/kg] of the anticonvulsant alone

Compound | ED50 (rats [1]; [3]) [mg/kg] | Time point of peak effect p. appl. (rats [1]; anticonvulsant alone, i.p.) [min] | other results
COc1cccc([C@@]2(O)C[C@H](O)CC[C@@H]2CN(C)C)c1 (racemic) [A, (1RS,3RS,6RS)-6-dimethylaminomethyl-1-(3-methoxy-phenyl)-cyclohexane-1,3-diol hydrochloride] | – | – | ED25 [mg/kg] (confidence interval) of the individual substance (male Sprague Dawley rats): 9.15 mg/kg; Time point of peak effect p. appl. (rats [1]; A alone, i.v., timepoint of first measurement): 15 min; ED50 (rats [1]; iv, i.v., 15 min p. appl. (peak effect), read-out: ED50 [mg/kg] of A alone): 15.3 mg/kg; ED50 [mg/kg] of A alone (rats [1]; i.v., 15 min p. appl. (peak effect), hydrochloride): 15.3 mg/kg; Effect % MPE (time after administration of A) (rats [2]): 29 ± 6 (30 min) % MPE
CC(C)C[C@H](CN)CC(=O)O [(S)-pregabaline] | – | – | ED25 [mg/kg] (confidence interval) of the individual substance (male Sprague Dawley rats): 18.8 mg/kg
NCC1(CC(=O)O)CCCCC1 [B, Gabapentin hydrochloride] | – | – | Effect % MPE (time after administration of A) (rats [2]): 16 ± 5 (30 min) % MPE
NC(=O)N1c2ccccc2C=Cc2ccccc21 [Carbamazepine] | 30 | 15 | –
COC[C@@H](NC(C)=O)C(=O)NCc1ccccc1 [Lacosamide] | 35.9 | 15 | ED50 [mg/kg] of the anticonvulsant alone (rats [1]; i.p., 15 min p. appl. (peak effect)): 35.9 mg/kg
Nc1nnc(-c2cccc(Cl)c2Cl)c(N)n1 [Lamotrigine] | 35.3 | 15 | –
CC[C@@H](C(N)=O)N1CCCC1=O [Levetiracetam] | 986 | 15 | –
CCOC(=O)Nc1ccc(NCc2ccc(F)cc2)cc1N [Retigabine] | 5.09 | 15 | –

Reference: patent US20110053914A1, “Pharmaceutical Combination Comprising 6-Dimethylaminomethyl-1-(3-methoxy-phenyl)-cyclohexane-1,3-diol or 6-Dimethylaminomethyl-1-(3-hydroxy-phenyl)-cyclohexane-1,3-diol and an Antiepileptic” (Gruenenthal GmbH, priority 2009, published 2011)
